Reference: patent publication US4356186A, “Acetic acid derivatives and composition containing the same” (priority 1980, dated 1982)
Like-named read-outs stand apart in the source and are kept apart here.

Legend:
[1] = system: carrageenin-induced hind paw edema; assay: Anti-inflammatory activity (carrageenin-induced hind paw edema in rats); assay type: in vivo, Male Wistar rats; details: for inhibition in vivo at 0.2 mg/kg / inhibition in vivo at 0.4 mg/kg / inhibition in vivo at 0.8 mg/kg / inhibition in vivo at 1.6 mg/kg / inhibition in vivo at 3.2 mg/kg / inhibition in vivo at 1 mg/kg / inhibition in vivo at 4 mg/kg / inhibition in vivo at 5 mg/kg / inhibition in vivo at 2 mg/kg: Rattus norvegicus, po; for inhibition in vivo at 0.2 mg/kg: 0.2 mg/kg p.o.; for inhibition in vivo at 0.4 mg/kg: 0.4 mg/kg p.o.; for inhibition in vivo at 0.8 mg/kg: 0.8 mg/kg p.o.; for inhibition in vivo at 1.6 mg/kg: 1.6 mg/kg p.o.; for inhibition in vivo at 3.2 mg/kg: 3.2 mg/kg p.o.; for inhibition in vivo at 1 mg/kg: 1 mg/kg p.o.; for inhibition in vivo at 4 mg/kg: 4 mg/kg p.o.; for inhibition in vivo at 5 mg/kg: 5 mg/kg p.o.; for inhibition in vivo at 2 mg/kg: 2 mg/kg p.o.
Experimental: Anti-inflammatory activity (carrageenin-induced hind paw edema in rats)
The test was carried out in a similar manner as disclosed in Proc. Soc. Exptl.
Male Wistar rats, weighing 100-300 g, were used. A 1% aqueous carrageenin solution (0.1 ml) was administered subcutaneously into the hind foot pad of rats. Two and three hours after the carrageenin injection, the paw volume was measured and the swelling rate was calculated based on the paw volume before the carrageenin injection. The inhibitory rate was determined as compared with the average swelling rate of the control group to which only vehicle was administered. The test compounds were administered orally one hour before the carrageenin injection.

stomach ulcer = assay: Gastrointestinal ulcerogenicity; assay type: in vivo, Male Wistar rats; set-up: key to Average score of stomach ulcer: ulcer score 1 to 4, 4 = most severe ulcer; details: for Number of rats having a score of stomach ulcer of 2 or more/total number of rats used / Average score of stomach ulcer: after 6 hours; for Average score of stomach ulcer: score 1 to 4; for gastrointestinal ulcerogenicity compared with the known aspirin: in words, from Table 2
Experimental: Gastrointestinal ulcerogenicity
The test was carried out in a similar manner as disclosed in Arzneim. Forsch., 19, 36 (1969).
Male Wistar rats, weighing 130-180 g, were used. After the rats were fasted for 24 hours, the test compound was orally administered one time. After 6 hours, the rats were killed and the stomach was removed. […] The degree of stomach ulcer was scored from 1 to 4, wherein 4 is the most severe ulcer. In Table 2, there are shown the average score of stomach ulcer in each dose and also the ratio of the number of rats having a score of stomach ulcer of 2 or more to total number of rats used.

Acute lethal toxicity = assay type: in vivo; details: rat, in vivo; single oral administration, mortality on the 7th day, Litchfield and Wilcoxon
Experimental: (§1) The mortality was observed on the 7th day after single oral administration of test compounds in male Wistar rats, and the LD50 was calculated according to the method of Litchfield and Wilcoxon.

male Wistar rats = assay: Acute lethal toxicity; assay type: in vivo; details: from LD50, single oral administration
Experimental: as §1

[2] = 2 h, two hours, read-out: Inhibitory rate, two hours after the carrageenin injection
[3] = 3 h, three hours, read-out: Inhibitory rate, three hours after the carrageenin injection

SMILES	Number of rats having a score of stomach ulcer of 2 or more/total number of rats used (stomach ulcer; 16 mg/kg p.o.)	Average score of stomach ulcer (stomach ulcer; 16 mg/kg p.o.)	Number of rats having a score of stomach ulcer of 2 or more/total number of rats used (stomach ulcer; 32 mg/kg p.o.)	Average score of stomach ulcer (stomach ulcer; 32 mg/kg p.o.)	Number of rats having a score of stomach ulcer of 2 or more/total number of rats used (stomach ulcer; 64 mg/kg p.o.)	Average score of stomach ulcer (stomach ulcer; 64 mg/kg p.o.)	inhibition in vivo at 5 mg/kg [1, 2] [%]	inhibition in vivo at 5 mg/kg [1, 3] [%]	gastrointestinal ulcerogenicity compared with the known aspirin (stomach ulcer)	inhibition in vivo at 2 mg/kg [1, 2] [%]	inhibition in vivo at 2 mg/kg [1, 3] [%]	also measured
CC(C(=O)O)c1ccc2c(c1)SCC1CCCCC1C2=O (stereo not shown) [F, 2-(6,6a,7,8,9,10,10a,11-Octahydro-11-oxodibenzo[b,e]thiepin-3-yl)propionicacid-A]	2/6	1.00	2/6	1.00	6/9	1.67	–	–	–	–	–	inhibition in vivo at 0.2 mg/kg [1, 2]: 8.6%; inhibition in vivo at 0.4 mg/kg [1, 2]: 14.9%; inhibition in vivo at 0.8 mg/kg [1, 2]: 20.5%; inhibition in vivo at 1.6 mg/kg [1, 2]: 28.4%; inhibition in vivo at 3.2 mg/kg [1, 2]: 36.4%; inhibition in vivo at 0.2 mg/kg [1, 3]: 6.7%; inhibition in vivo at 0.4 mg/kg [1, 3]: 11.6%; inhibition in vivo at 0.8 mg/kg [1, 3]: 12.6%; inhibition in vivo at 1.6 mg/kg [1, 3]: 20.3%; inhibition in vivo at 3.2 mg/kg [1, 3]: 30.6%; anti-inflammatory activity compared with the known indomethacin ([1]; in words, from Table 1): comparable or superior to that of the known indomethacin
CC(C(=O)O)c1ccc2c(c1)SCC1CCCCC1C2=O (stereo not shown) [H, Calcium 2-(6,6a,7,8,9,10,10a,11-octahydro-11-oxodibenzo[b,e]thiepin-3-yl)propionate]	1/3	1.00	2/3	1.33	–	–	–	–	–	–	–	inhibition in vivo at 1 mg/kg [1, 2]: 31.4%; inhibition in vivo at 4 mg/kg [1, 2]: 39.5%; inhibition in vivo at 1 mg/kg [1, 3]: 26.2%; inhibition in vivo at 4 mg/kg [1, 3]: 35.7%
CCOC(=O)C(C)c1ccc2c(c1)SCC1CCCCC1C2=O (stereo not shown) [I, Ethyl 2-(6,6a,7,8,9,10,10a,11-octahydro-11-oxodibenzo[b,e]thiepin-3-yl)propionate]	–	–	0/6	0.33	3/6	1.00	42.2	38.3	far less gastrointestinal ulcerogenicity than the known aspirin	–	–	Number of rats having a score of stomach ulcer of 2 or more/total number of rats used (stomach ulcer; 8 mg/kg p.o.): 0/3; Average score of stomach ulcer (stomach ulcer; 8 mg/kg p.o.): 0.00
CCCCOC(=O)C(C)c1ccc2c(c1)SCC1CCCCC1C2=O (stereo not shown) [J, Butyl 2-(6,6a,7,8,9,10,10a,11-octahydro-11-oxodibenzo[b,e]thiepin-3-yl)propionate]	0/3	0.33	3/6	1.33	3/6	1.50	31.8	26	–	21.5	11.5	–
CC(C(=O)OCCc1ccccc1)c1ccc2c(c1)SCC1CCCCC1C2=O (stereo not shown) [L, Phenethyl 2-(6,6a,7,8,9,10,10a,11-octahydro-11-oxodibenzo[b,e]thiepin-3-yl)propionate]	–	–	1/9	0.56	0/6	0.67	44.8	39.1	far less gastrointestinal ulcerogenicity than the known aspirin	20.7	24.8	LD50 at 168 h (Acute lethal toxicity): 230 mg/kg; toxicity relative to that of indomethacin (male Wistar rats): about 1/12
CC(C(=O)OCc1ccccn1)c1ccc2c(c1)SCC1CCCCC1C2=O (stereo not shown) [O, 2-Pyridylmethyl 2-(6,6a,7,8,9,10,10a,11-octahydro-11-oxodibenzo[b,e]thiepin-3-yl)propionate]	–	–	2/6	0.67	4/6	1.83	30.8	30.6	–	31.4	28.8	–
CC(C(=O)OCCc1ccccn1)c1ccc2c(c1)SCC1CCCCC1C2=O (stereo not shown) [P, 2-(2-Pyridyl)ethyl 2-(6,6a,7,8,9,10,10a,11-octahydro-11-oxodibenzo[b,e]thiepin-3-yl)propionate]	–	–	0/6	0.17	3/6	0.50	27.6	25.5	far less gastrointestinal ulcerogenicity than the known aspirin	–	–	–
